According to ChEMBL document CHEMBL5055687, “Improved 5-HT2 Selective Receptor Modulators for the Treatment of Psychological Disorders” (ACS Med Chem Lett, 2021):

How the values were obtained:
Assay type in all cases: cell-based; call rule not given here
[1] = target: T1, 5-hydroxytryptamine receptor 2A (Homo sapiens, UniProt P28223); test: Modulation of human 5HT2A expressed in HEK293T cells co-transfected with Galphaq-RLuc8, Ggamma1-GFP2 and Gbeta1 assessed as dissociation of Galphaq from Ggamma1 preincubated for 1 hr followed by addition of coelenterazine 400a substrate and measured after 15 mins by BRET assay
T1 sequence (P28223 whole entry): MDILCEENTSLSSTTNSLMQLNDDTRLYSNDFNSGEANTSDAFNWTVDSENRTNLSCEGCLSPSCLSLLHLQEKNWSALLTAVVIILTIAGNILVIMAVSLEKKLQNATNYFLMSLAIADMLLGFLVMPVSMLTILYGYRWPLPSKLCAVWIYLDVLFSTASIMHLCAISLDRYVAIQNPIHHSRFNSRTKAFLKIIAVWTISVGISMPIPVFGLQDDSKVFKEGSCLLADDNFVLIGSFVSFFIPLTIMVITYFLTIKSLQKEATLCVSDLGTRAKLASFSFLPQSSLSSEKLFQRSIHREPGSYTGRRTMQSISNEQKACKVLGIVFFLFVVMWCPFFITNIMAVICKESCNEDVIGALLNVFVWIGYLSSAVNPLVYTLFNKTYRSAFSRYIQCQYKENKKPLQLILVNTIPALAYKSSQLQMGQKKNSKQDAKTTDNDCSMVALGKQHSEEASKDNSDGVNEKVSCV

[2] = target: T2, 5-hydroxytryptamine receptor 2C (Homo sapiens, UniProt P28335); test: Modulation of human 5HT2C expressed in HEK293T cells co-transfected with Galphaq-RLuc8, Ggamma1-GFP2 and Gbeta1 assessed as dissociation of Galphaq from Ggamma1 preincubated for 1 hr followed by addition of coelenterazine 400a substrate and measured after 15 mins by BRET assay
T2 sequence (P28335 whole entry): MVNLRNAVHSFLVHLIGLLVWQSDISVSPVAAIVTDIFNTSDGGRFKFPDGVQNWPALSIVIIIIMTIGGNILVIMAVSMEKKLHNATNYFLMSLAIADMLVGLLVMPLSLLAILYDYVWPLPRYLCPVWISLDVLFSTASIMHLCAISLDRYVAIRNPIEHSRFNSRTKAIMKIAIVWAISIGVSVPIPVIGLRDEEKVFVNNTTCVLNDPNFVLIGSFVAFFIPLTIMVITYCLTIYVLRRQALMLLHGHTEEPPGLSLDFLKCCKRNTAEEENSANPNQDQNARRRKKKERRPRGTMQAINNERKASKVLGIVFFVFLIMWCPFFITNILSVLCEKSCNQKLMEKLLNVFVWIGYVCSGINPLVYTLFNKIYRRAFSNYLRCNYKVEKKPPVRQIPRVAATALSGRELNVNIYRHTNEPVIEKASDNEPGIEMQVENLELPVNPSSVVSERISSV

[3] = target: T3, 5-hydroxytryptamine receptor 2B (Homo sapiens, UniProt P41595); test: Modulation of human 5HT2B expressed in HEK293T cells co-transfected with Galphaq-RLuc8, Ggamma1-GFP2 and Gbeta1 assessed as dissociation of Galphaq from Ggamma1 preincubated for 1 hr followed by addition of coelenterazine 400a substrate and measured after 15 mins by BRET assay
T3 sequence (P41595 whole entry): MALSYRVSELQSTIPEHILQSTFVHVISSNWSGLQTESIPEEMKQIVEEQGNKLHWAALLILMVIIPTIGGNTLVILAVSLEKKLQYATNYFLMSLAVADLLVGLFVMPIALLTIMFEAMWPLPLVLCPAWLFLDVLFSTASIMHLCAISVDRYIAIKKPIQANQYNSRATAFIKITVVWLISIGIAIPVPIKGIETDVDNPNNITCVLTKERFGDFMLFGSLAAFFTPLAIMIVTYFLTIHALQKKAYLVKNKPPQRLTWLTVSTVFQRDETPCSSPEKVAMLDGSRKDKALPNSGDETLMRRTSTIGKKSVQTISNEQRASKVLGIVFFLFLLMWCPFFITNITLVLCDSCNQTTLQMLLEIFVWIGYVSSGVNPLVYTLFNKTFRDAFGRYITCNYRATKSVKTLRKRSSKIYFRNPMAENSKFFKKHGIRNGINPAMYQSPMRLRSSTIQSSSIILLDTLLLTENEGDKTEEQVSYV

[4] = target: T1, 5-hydroxytryptamine receptor 2A; test: Modulation of human 5HT2A expressed in HEK293T cells co-transfected with Galphaq-RLuc8, Ggamma1-GFP2 and Gbeta1 assessed as dissociation of Galphaq from Ggamma1 preincubated for 1 hr followed by addition of coelenterazine 400a substrate and measured after 15 mins by BRET assay relative to 5-HT; conditions: filed as modulator, time 75.0 min
[5] = target: T3, 5-hydroxytryptamine receptor 2B; test: Modulation of human 5HT2B expressed in HEK293T cells co-transfected with Galphaq-RLuc8, Ggamma1-GFP2 and Gbeta1 assessed as dissociation of Galphaq from Ggamma1 preincubated for 1 hr followed by addition of coelenterazine 400a substrate and measured after 15 mins by BRET assay relative to 5-HT; conditions: time 75.0 min

With CCn1cc(CCN(C)C)c2c(O)cccc21 the IC50 [1] was 0.196 µM, the IC50 [2] was 0.0009 µM and the IC50 ([3]; hek293t) was “Not Active”. The Efficacy [4] was 65%.

In the case of CN(C)CCc1cn(C)c2cccc(O)c12, the IC50 [1] is reported as 0.0863 µM, the IC50 [2] is reported as 0.00951 µM and the Efficacy ([5]; filed as modulator) is reported as 40%. It also gave an IC50 ([3]; read-out: IC50) of 0.0317 µM and an Efficacy [4] of 73%.

In the case of CN(C)CCc1cn(CCF)c2cccc(O)c12, the IC50 [1] is reported as 0.188 µM, the IC50 [2] is reported as 0.0027 µM and the IC50 ([3]; hek293t) is reported as “Not Active”. For the same compound, the Efficacy [4] was 48%.

Compound CCN(C)CCc1cn(C)c2cccc(O)c12 has an Efficacy ([5]; filed as modulator) of 44% and an Efficacy [4] of 66%.

CN(C)CCc1cn(CC2CC2)c2cccc(O)c12 was tested, and the IC50 ([3]; hek293t) was “Not Active” and the Efficacy [4] was 29%.

In the case of CC(C)N(C)CCc1cn(C)c2cccc(O)c12, the Efficacy ([5]; filed as modulator) is reported as 83% and the Efficacy [4] is reported as 85%.

Compound CN(CCc1cn(C)c2cccc(O)c12)CC1CC1 has an Efficacy [5] of 19% and an Efficacy [4] of 55%.

In the case of CN(C)CCc1c[nH]c2cccc(O)c12, the Efficacy ([5]; filed as modulator) is reported as 63% and the Efficacy [4] is reported as 82%.
